Measured values: ChEMBL document CHEMBL1255522, “Novel amides and esters prodrugs of olmesartan: Synthesis, bioconversion, and pharmacokinetic evaluation” (Bioorg Med Chem Lett, 2010)

Assay: Stability in Sprague-Dawley rat plasma assessed as compound remaining at 50 mg/ml after 30 mins
Assay type: ADME, cell-free
Conditions: read-out: Stability

Row | SMILES | remaining at 0.5 h
1 | CCCc1nc(C(C)(C)O)c(C(=O)NCCCCCC[N+](=O)[O-])n1Cc1ccc(-c2ccccc2C2=NNNN2)cc1 | 101%
2 | CCCc1nc(C(C)(C)O)c(C(=O)NCCCCCCC(=O)O)n1Cc1ccc(-c2ccccc2C2=NNNN2)cc1 | 97.5%
3 | CCCc1nc(C(C)(C)O)c(C(=O)OCc2c[nH]c(=O)[nH]c2=O)n1Cc1ccc(-c2ccccc2C2=NNNN2)cc1 | 96.3%
4 | CCCc1nc(C(C)(C)O)c(C(=O)OCCCCCC[N+](=O)[O-])n1Cc1ccc(-c2ccccc2C2=NNNN2)cc1 | 100%
5 | CCCc1nc(C(C)(C)O)c(C(=O)OCCCCCCC(=O)OCC)n1Cc1ccc(-c2ccccc2C2=NNNN2)cc1 | 81.1%
6 | CCCc1nc(C(C)(C)O)c(C(=O)OCCCCCCC(=O)O)n1Cc1ccc(-c2ccccc2C2=NNNN2)cc1 | 98.8%
7 | CCCc1nc(C(C)(C)O)c(C(=O)NCCNCCO)n1Cc1ccc(-c2ccccc2C2=NNNN2)cc1 | 98.9%
8 | CCCCCCCCOC(=O)c1c(C(C)(C)O)nc(CCC)n1Cc1ccc(-c2ccccc2C2=NNNN2)cc1 | 90.2%
